{
  "source": "patent US10251874B2",
  "about": "“Crystalline forms of a JAK inhibitor compound” (THERAVANCE BIOPHARMA R&D IP, LLC, priority 2017, dated 2019)",
  "key": {"[1]": {"target": "T1, Tyk2 (Homo sapiens, UniProt P29597)", "T1 construct": "GST; purchased Life Technologies", "T1 sequence (P29597 whole entry)": "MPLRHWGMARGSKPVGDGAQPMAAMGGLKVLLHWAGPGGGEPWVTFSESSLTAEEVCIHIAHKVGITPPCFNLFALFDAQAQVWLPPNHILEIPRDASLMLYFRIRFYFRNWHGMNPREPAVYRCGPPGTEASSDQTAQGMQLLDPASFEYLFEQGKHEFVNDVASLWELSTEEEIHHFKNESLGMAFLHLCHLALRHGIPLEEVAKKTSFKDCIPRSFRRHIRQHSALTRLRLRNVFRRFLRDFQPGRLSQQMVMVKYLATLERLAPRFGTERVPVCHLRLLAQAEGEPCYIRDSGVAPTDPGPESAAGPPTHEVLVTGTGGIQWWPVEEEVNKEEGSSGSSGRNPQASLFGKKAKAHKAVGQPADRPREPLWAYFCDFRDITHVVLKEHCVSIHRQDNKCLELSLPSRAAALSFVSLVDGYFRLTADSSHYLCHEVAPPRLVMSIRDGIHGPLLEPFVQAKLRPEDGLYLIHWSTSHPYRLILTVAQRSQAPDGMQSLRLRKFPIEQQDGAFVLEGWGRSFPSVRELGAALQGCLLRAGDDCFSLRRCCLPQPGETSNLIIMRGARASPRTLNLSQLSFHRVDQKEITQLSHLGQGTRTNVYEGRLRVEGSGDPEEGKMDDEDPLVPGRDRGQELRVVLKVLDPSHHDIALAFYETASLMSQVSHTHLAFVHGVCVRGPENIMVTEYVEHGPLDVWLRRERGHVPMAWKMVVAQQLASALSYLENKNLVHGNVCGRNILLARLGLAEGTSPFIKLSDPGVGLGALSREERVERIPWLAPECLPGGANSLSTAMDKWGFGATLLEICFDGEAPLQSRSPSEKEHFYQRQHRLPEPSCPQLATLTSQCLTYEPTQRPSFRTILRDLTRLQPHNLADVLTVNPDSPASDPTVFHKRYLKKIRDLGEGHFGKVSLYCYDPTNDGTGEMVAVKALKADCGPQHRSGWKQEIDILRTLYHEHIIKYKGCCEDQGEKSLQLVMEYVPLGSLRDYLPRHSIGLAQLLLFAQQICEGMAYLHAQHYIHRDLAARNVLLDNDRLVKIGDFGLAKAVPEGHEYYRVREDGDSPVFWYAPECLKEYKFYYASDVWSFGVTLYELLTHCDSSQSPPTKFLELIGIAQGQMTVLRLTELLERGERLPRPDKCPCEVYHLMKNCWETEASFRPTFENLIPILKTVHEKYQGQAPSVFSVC", "test": "Assay 1: LanthaScreen biochemical JAK kinase assay, Tyk2", "settings": "converted from pIC50 by Cheng-Prusoff; ATP at Km 10 μM; read-out: Tyk2 pKi (converted)", "protocol": "A panel of four LanthaScreen JAK biochemical assays (JAK1, 2, 3 and Tyk2) were carried in a common kinase reaction buffer (50 mM HEPES, pH 7.5, 0.01% Brij-35, 10 mM MgCl2, and 1 mM EGTA). Recombinant GST-tagged JAK enzymes and a GFP-tagged STAT1 peptide substrate were obtained from Life Technologies.\nThe serially diluted compound was pre-incubated with each of the four JAK enzymes and the substrate in white 384-well microplates (Corning) at ambient temperature for lh. ATP was subsequently added to initiate the kinase reactions in 10 μL total volume, with 1% DMSO. […] The plates were allowed to incubate at ambient temperature for lh before being read on the EnVision reader (Perkin Elmer). Emission ratio signals (520 nm/495 nm) were recorded and utilized to calculate the percent inhibition values based on DMSO and background controls.\nFor dose-response analysis, percent inhibition data were plotted vs. compound concentrations, and IC50 values were determined from a 4-parameter robust fit model with the Prism software (GraphPad Software). Results were expressed as pIC50 (negative logarithm of IC50) and subsequently converted to pK1 (negative logarithm of dissociation constant, Ki) using the Cheng-Prusoff equation."}, "[2]": {"tested_on": "IL-2 stimulated pSTAT5 in CD4+ T cells", "test": "Assay 4: Inhibition of IL-2 stimulated pSTAT5 in CD4+ T cells", "format": "cell-based", "settings": "CD4+ T cells in human PBMCs, flow cytometry; read-out: pIC50, inhibition of IL-2 stimulated pSTAT5 (converted)", "protocol": "The potency of the test compound for inhibition of interleukin-2 (IL-2)/anti-CD3 stimulated STATS phosphorylation was measured in CD4-positive (CD4+) T cells in human peripheral blood mononuclear cells (PBMCs) isolated from human whole blood (Stanford Blood Center) using flow cytometry. Because IL-2 signals through JAK, this assay provides a measure of JAK cellular potency.\nCD4+T cells were identified using a […] (PE) conjugated anti-CD4 antibody (Clone RPA-T4, BD Biosciences), while an Alexa Fluor 647 conjugated anti-pSTAT5 antibody (pY694, Clone 47, BD Biosciences) was used to detect STATS phosphorylation.\n(1) The protocol of Assay 3 paragraph (1) was followed with the exception that the cytokine stimulation with anti-CD3 was performed for 30 min instead of 24 h. […] After incubation, cells were washed twice in FACS buffer before being analyzed using a LSRII flow cytometer (BD Biosciences). To determine the inhibitory potency of the test compound in response to IL-^2/anti-CD3, the median fluorescent intensity (MFI) of pSTAT5 was measured in CD4+ T cells. IC50 values were determined from analysis of the inhibition curves of MFI vs compound concentration. Data are expressed as pIC50 (negative decadic logarithm IC50) values."}},
  "data": [
    {"smiles": "CCc1cc(O)c(F)cc1-c1ccc2c(-c3nc4c([nH]3)CCN(C3CCN(C)CC3)C4)n[nH]c2c1", "note": "[Compound 1, 5-ethyl-2-fluoro-4-(3-(5-(1-methylpiperidin-4-yl)-4,5,6,7-tetrahydro-1H-imidazo[4,5-c]pyridin-2-yl)-1H-indazol-6-yl)phenol]", "values": [
      {"measurement": "Ki", "setting": "[1]", "result": 0.158, "unit": "nM"},
      {"measurement": "IC50", "setting": "[2]", "result": "~20", "unit": "nM"}
    ]}
  ]
}
